The source of these data is US20260209234A1, “SUBSTITUTED DIHYDROPYRROLO[3,4-D]PYRIMIDINE COMPOUNDS AND THEIR USE IN TREATING MEDICAL CONDITIONS” (Karuna Therapeutics, Inc., priority 2022, published 2026).

The test deals with T1, human M4 receptor (Homo sapiens, UniProt P08173).
T1 construct: expressed in transfected cells
T1 sequence (P08173 1-479): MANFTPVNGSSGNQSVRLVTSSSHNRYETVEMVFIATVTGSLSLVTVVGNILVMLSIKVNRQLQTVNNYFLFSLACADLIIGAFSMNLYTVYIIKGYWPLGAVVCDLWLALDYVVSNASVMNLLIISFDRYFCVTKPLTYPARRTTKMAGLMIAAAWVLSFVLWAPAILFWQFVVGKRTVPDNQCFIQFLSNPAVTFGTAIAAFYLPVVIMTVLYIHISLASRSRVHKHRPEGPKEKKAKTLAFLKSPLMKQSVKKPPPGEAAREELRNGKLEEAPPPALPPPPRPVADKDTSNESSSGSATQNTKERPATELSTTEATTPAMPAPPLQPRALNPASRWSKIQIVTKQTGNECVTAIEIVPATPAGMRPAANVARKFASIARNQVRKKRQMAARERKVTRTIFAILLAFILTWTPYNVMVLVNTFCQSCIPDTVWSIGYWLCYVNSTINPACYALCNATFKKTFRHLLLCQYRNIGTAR
Description: M4 GTPγS PAM assay. It is filed as biochemical. The conditions noted are these: membranes of CHO-K1 cells stably expressing human M4; EC20 acetylcholine 40 nM; 35S-GTP. In short, it runs like this:
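CHO-K1 membranes stably expressing human M4, preincubated with compound and 0.1 μM GDP (final) in 20 mM HEPES, 10 mM MgCl2, 100 mM NaCl, pH 7.4, then EC20 acetylcholine (40 nM final). 35S-GTPγS binding 1 h at room temperature, filtration and scintillation counting.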

A word on the EC50: it is the midpoint of the concentration-response curve. Low readings indicate an effect from little substance, high ones a need for much substance. With `COc1nc(C)nc2c1C(C)N(C(=O)CC1CN(c3ccnc(C(F)(F)F)c3)C1)C2` (single isomer, unassigned) [Compound I-52, 1-(4-Methoxy-2,5-dimethyl-5,7-dihydro-6H-pyrrolo[3,4-d]pyrimidin-6-yl)-2-(1-(2-(trifluoromethyl)pyridin-4-yl)azetidin-3-yl)ethan-1-one], the EC50 was no more than 100 nM.

Regarding `COc1nc(C#N)nc2c1C(C)N(C(=O)CC1CN(c3ccnc(C(F)(F)F)c3)C1)C2` (single isomer, unassigned) [Compound I-6, 4-Methoxy-5-methyl-6-(2-(1-(2-(trifluoromethyl)pyridin-4-yl)azetidin-3-yl)acetyl)-6,7-dihydro-5H-pyrrolo[3,4-d]pyrimidine-2-carbonitrile], the concentration for a half-maximal effect (EC50) was no more than 100 nM.
